ChEMBL document CHEMBL5356939, “Research progress of anticancer drugs targeting CDK12” (RSC Med Chem, 2023)
Values belong to the compound of their own block, whether it stands above or below them.

Key:
[1] = molecular target: T1, Cyclin-dependent kinase 9 (Homo sapiens, UniProt P50750); assay: Inhibition of recombinant human CDK9 expressed in baculovirus infected Insect cell measured after 30 mins by scintillation counter analysis
[2] = molecular target: T2, Protein cereblon/Cyclin-dependent kinase 12 (Homo sapiens, UniProt Q96SW2+Q9NYV4); assay: Protac activity at CRBN/CDK12 in human MOLT-4 cells assessed as […] by Westernblot analysis; format: cell-based
T2 sequence (Q9NYV4 whole entry): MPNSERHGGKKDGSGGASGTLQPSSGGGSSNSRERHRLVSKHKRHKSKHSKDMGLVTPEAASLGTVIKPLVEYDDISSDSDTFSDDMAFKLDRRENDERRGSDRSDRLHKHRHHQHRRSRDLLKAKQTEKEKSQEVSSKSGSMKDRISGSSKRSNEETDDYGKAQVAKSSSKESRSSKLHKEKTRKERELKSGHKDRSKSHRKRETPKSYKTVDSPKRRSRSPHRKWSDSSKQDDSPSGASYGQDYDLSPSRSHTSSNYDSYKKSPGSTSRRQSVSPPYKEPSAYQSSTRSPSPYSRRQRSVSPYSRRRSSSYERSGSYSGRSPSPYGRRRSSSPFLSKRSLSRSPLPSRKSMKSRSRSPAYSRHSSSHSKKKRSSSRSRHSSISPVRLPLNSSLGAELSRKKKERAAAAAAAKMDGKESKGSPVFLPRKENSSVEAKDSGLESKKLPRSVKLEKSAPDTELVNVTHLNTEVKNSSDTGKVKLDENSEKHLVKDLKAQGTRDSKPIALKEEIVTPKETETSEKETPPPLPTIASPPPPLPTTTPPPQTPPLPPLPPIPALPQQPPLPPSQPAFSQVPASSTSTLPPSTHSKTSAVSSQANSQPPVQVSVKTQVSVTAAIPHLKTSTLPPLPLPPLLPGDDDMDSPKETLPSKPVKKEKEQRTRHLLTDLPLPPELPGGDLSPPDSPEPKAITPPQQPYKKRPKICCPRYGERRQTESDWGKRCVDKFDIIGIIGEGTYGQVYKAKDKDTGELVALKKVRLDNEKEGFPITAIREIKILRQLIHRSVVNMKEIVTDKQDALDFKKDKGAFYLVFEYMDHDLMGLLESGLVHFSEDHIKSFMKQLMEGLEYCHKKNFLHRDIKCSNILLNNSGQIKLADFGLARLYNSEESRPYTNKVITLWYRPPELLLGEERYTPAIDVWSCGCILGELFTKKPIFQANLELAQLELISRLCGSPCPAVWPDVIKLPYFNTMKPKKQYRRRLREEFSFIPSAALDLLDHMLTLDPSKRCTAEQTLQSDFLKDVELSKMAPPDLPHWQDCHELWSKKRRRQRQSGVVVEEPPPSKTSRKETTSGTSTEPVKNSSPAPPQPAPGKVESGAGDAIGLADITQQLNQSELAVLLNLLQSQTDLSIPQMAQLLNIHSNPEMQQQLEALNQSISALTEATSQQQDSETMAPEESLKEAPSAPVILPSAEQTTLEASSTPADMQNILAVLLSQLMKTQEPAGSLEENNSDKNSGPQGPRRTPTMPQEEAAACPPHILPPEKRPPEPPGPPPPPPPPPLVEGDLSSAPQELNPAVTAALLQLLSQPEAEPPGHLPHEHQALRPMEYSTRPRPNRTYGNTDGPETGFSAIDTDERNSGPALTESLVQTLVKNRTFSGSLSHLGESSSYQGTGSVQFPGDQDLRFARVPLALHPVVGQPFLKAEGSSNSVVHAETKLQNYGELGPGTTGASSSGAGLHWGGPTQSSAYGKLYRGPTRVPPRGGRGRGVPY
T2 sequence (Q96SW2 whole entry): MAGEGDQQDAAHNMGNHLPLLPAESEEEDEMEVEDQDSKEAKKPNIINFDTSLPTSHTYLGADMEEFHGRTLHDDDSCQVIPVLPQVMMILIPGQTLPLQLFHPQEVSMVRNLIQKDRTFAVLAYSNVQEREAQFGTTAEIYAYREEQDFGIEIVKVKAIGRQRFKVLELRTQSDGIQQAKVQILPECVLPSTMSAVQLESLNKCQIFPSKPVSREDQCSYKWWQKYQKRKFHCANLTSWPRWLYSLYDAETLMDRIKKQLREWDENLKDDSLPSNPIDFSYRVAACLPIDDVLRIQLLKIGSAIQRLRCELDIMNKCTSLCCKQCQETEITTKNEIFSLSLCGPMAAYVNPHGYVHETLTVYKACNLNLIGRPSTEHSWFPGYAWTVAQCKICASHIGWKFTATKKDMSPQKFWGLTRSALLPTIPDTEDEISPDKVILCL

[3] = molecular target: Cyclin-dependent kinase 1 (Homo sapiens, UniProt P06493); assay: Inhibition of full length recombinant human CDK1 expressed in Insect cell in presence of ATP
Sequence of Cyclin-dependent kinase 1 (P06493 whole entry, the tested form may be a part): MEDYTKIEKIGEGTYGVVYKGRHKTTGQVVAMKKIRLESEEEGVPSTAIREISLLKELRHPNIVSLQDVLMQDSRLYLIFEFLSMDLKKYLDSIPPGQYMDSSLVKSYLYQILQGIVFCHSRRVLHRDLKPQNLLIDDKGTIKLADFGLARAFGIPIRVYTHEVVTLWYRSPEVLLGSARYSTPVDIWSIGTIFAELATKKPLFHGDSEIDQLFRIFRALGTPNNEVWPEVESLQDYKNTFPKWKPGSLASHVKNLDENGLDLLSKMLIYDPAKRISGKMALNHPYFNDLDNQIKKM

[4] = molecular target: T3, Cyclin-dependent kinase 12 (Homo sapiens, UniProt Q9NYV4); assay: Inhibition of GST-tagged recombinant human CDK12 (696 to 1082 residues) expressed in Insect cell in presence of ATP by Km ATP assay
T3 sequence (Q9NYV4 whole entry, the tested form may be a part): as the sequence (Q9NYV4 whole entry) above

[5] = molecular target: T4, Cyclin-dependent kinase 7 (Homo sapiens, UniProt P50613); assay: Inhibition of full length recombinant human CDK7 expressed in Insect cell in presence of ATP
T4 sequence (P50613 whole entry): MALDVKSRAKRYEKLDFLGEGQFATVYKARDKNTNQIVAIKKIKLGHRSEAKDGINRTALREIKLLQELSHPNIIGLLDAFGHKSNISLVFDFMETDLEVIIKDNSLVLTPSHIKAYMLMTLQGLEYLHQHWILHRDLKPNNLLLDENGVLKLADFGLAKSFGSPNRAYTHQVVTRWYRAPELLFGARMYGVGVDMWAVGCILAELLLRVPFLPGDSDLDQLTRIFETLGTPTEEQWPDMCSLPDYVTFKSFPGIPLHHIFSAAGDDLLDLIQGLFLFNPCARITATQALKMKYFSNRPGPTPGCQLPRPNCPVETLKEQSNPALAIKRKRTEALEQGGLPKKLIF

[6] = molecular target: Cyclin-dependent kinase 6 (Homo sapiens, UniProt Q00534)
Sequence of Cyclin-dependent kinase 6 (Q00534 whole entry): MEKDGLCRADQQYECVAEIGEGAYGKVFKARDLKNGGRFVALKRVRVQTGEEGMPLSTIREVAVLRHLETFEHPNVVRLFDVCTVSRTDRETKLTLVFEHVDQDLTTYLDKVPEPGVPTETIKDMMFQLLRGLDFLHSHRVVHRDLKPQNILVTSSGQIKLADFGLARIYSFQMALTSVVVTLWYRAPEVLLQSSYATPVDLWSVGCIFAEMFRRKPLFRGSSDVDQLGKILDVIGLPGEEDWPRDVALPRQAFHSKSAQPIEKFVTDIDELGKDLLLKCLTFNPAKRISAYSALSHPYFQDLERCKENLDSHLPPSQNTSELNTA
Description: Binding affinity to CDK6 (unknown origin) assessed as dissociation constant

[7] = molecular target: T1, Cyclin-dependent kinase 9
Description: Binding affinity to CDK9 (unknown origin) assessed as dissociation constant

[8] = Antiproliferative activity against human Neuroblastoma cell assessed as […] measured after 72 hrs; format: functional, cell-based
Lung cancer cell line = assay: Antiproliferative activity against human Lung cancer cell line assessed as […] measured after 72 hrs; format: functional, cell-based
[9] = molecular target: Cyclin-dependent kinase 2 (Homo sapiens, UniProt P24941); assay: Inhibition of full length recombinant human CDK2 expressed in Insect cell in presence of ATP
[10] = molecular target: T1, Cyclin-dependent kinase 9; assay: Inhibition of full length recombinant human CDK9 expressed in Insect cell in presence of ATP
[11] = molecular target: T3, Cyclin-dependent kinase 12; assay: Inhibition of GST-tagged recombinant human CDK12 (696 to 1082 residues) expressed in Insect cell in presence of ATP by high ATP assay
[12] = molecular target: T2, Protein cereblon/Cyclin-dependent kinase 12; assay: Protac activity at CRBN/CDK12 in human Jurkat cells assessed as […] measured after 6 hrs by Westernblot analysis; format: cell-based
[13] = molecular target: Cyclin-dependent kinase 12 (Mus musculus, UniProt Q14AX6); assay: Inhibition of CDK12 in mouse OV2944-HM-1 cells by Westernblot analysis; format: cell-based
Sequence of Cyclin-dependent kinase 12 (Mus musculus, UniProt Q14AX6) (Q14AX6 whole entry): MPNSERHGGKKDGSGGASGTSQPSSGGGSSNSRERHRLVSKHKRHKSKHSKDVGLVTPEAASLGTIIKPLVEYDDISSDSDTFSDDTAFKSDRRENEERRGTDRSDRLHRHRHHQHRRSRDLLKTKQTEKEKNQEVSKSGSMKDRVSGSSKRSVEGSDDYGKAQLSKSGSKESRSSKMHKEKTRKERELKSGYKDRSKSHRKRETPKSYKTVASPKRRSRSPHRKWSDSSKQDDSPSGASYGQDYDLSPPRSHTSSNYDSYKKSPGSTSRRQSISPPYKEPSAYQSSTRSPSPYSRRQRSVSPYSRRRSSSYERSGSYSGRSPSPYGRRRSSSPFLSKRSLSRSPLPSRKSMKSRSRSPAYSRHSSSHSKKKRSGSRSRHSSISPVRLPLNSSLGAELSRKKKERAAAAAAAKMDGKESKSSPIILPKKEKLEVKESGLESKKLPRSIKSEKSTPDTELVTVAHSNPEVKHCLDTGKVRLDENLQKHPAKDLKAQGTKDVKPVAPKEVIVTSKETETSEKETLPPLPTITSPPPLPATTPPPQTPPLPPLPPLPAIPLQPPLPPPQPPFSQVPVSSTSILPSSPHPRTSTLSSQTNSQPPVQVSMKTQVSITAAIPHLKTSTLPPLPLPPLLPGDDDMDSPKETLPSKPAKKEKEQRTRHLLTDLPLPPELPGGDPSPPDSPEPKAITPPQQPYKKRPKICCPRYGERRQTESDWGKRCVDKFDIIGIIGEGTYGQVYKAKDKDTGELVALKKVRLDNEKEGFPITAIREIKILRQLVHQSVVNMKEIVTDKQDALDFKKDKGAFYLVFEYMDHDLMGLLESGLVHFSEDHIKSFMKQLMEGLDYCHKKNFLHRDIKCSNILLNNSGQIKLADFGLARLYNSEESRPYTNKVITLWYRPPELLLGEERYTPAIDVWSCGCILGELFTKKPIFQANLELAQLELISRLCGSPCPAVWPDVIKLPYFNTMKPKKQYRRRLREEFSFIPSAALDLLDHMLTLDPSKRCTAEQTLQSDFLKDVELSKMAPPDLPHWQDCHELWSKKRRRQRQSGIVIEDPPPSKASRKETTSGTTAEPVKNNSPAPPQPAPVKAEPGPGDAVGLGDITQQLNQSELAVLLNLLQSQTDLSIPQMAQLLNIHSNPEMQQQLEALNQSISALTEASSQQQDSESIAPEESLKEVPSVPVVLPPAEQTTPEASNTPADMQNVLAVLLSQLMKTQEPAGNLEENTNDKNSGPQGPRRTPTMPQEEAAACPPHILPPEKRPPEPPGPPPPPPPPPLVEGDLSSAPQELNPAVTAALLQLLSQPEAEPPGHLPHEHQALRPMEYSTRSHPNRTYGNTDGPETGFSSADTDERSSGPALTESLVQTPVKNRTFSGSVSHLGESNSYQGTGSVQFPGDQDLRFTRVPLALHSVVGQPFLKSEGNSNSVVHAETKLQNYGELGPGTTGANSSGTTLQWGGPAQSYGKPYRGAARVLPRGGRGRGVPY

[14] = molecular target: Cyclin-dependent kinase 13 (Homo sapiens, UniProt Q14004); assay: Inhibition of CDK13 (unknown origin)
[15] = molecular target: T4, Cyclin-dependent kinase 7; assay: Inhibition of CDK7 (unknown origin)
[16] = molecular target: T3, Cyclin-dependent kinase 12; assay: Inhibition of CDK12 (unknown origin)

T1 sequence (P50750 whole entry): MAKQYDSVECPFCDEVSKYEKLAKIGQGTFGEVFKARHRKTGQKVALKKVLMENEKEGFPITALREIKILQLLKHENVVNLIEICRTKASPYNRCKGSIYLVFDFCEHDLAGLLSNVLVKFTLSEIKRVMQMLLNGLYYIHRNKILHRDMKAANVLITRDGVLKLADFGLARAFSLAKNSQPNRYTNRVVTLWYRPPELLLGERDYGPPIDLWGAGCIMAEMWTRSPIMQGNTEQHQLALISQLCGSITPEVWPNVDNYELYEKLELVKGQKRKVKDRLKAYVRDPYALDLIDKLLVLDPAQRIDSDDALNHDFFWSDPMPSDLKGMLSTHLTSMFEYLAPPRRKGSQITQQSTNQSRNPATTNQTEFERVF

SMILES: CCn1cnc2c(NCc3nc4ccc(F)c(F)c4[nH]3)nc(N3CCCC[C@H]3CCO)nc21
IC50 [3]: 28600 nM
IC50 [4]: 14 nM
IC50 [5]: > 30000 nM

SMILES: Cn1cc(-n2cnc3c(NCc4nc5cc(Cl)c(Cl)cc5[nH]4)nc(N4CCOCC4)nc32)cn1
Kd [6]: 5100 nM
Kd [7]: > 10000 nM

SMILES: C=CC(=O)Nc1cccc(Nc2nc(N3CCCC[C@H]3CCO)nc3c2ncn3CC)c1
IC50 [8]: 8 nM
IC50 (Lung cancer cell line): 8 nM

SMILES: CCc1cnn2c(NCc3nc4ccc(F)c(F)c4[nH]3)cc(N3CCCC[C@H]3CCO)nc12
IC50 [3]: 3410 nM
IC50 [4]: 22 nM
IC50 [9]: 40 nM
IC50 [10]: 240 nM
IC50 [5]: 21200 nM
IC50 [11]: 47 nM

SMILES: O=C(CN1CCC[C@@H](Nc2ncc(Cl)c(-c3c[nH]c4ccccc34)n2)C1)Nc1ccc([As](O)O)cc1
EC50 [13]: 35 nM

SMILES: O=C(CN1CCC[C@@H](Nc2ncc(Cl)c(-c3c[nH]c4ccccc34)n2)C1)Nc1ccc([As]2SCCS2)cc1
EC50 [13]: 32 nM

Continued, values first:

IC50 [1]: 10500 nM
SMILES: CN(C)C/C=C/C(=O)Nc1ccc(C(=O)N2CCC[C@@H](Nc3ncc(Cl)c(-c4c[nH]c5ccccc45)n3)C2)cc1

IC50 [2]: 107 nM
SMILES: Clc1cnc(N[C@H]2CCCNC2)nc1-c1c[nH]c2ccccc12

IC50 [4]: 31 nM
SMILES: CC(C)n1cnc2c(NCc3nc4ccc(F)c(F)c4[nH]3)nc(N3CCCC[C@H]3CCO)nc21

IC50 [12]: 6 nM
SMILES: CC(C)S(=O)(=O)c1ccccc1Nc1nc(N[C@H]2CCCN(CCCCCCCNC(=O)COc3cccc4c3C(=O)N(C3CCC(=O)NC3=O)C4=O)C2)ncc1Cl (stereo partly drawn)

IC50 [2]: 9 nM
SMILES: O=C(COc1cccc2c1C(=O)N(C1CCC(=O)NC1=O)C2=O)NCCCCCCCN1CCC[C@H](Nc2ncc(Cl)c(-c3c[nH]c4ccccc34)n2)C1 (stereo partly drawn)

IC50 [14]: 628 nM
IC50 [15]: 238 nM
IC50 [16]: 893 nM
SMILES: CN(C)C/C=C/C(O)Nc1ccc(C(=O)Nc2cccc(Nc3ncc(Cl)c(-c4c[nH]c5ccccc45)n3)c2)cc1 (stereo not drawn)
